{"source": "patent US20200390909A1", "about": "“DRUG FRAGMENT IMAGING AGENT CONJUGATES” (The Board of Trustees of the Leland Stanford Junior …, priority 2018, published 2020)", "key": {"[1]": {"details": "systemically administered, clinical optical contrast agent; cited from earlier work"}, "breast tumor": {"test_system": "breast tumor", "assay": "NIRF imaging of breast tumor after oral gavage of systemic functional dye", "type": "in vivo, mouse", "experimental": "FIG. 6A-6D. Highlighting a breast tumor following oral administration of an exemplary systemic functional dye (Compound (8), SU780). FIG. 6A NIRF imaging of the intact mouse 24 h post oral gavage of SU780.\nA wild type with an unidentified spontaneous flank tumor received an oral gavage of Compound (8) (SU780) (0.4 mg/kg). The following day, the animal was sacrificed, and the tumor was subjected to NIRF imaging.\nShown in FIG. 6 is the highlighting of a breast tumor following oral administration of the systemic functional dye Compound (8) (SU780)."}}}
{"compound": "CC1(C)C(/C=C/C2=C(Oc3ccc(C[C@H](NC(=O)c4ccc(NCc5cnc6nc(N)[nH]c(=O)c6n5)cc4)C(=O)[O-])cc3)C(=C/C=C3\\N(CCCCS(=O)(=O)[O-])c4ccc(S(=O)(=O)[O-])cc4C3(C)C)/CCC2)=[N+](CCCCS(=O)(=O)[O-])c2ccc(S(=O)(=O)[O-])cc21.[H+].[H+].[H+].[H+]", "note": "[OTL38]", "values": [{"measurement": "TBR", "setting": "[1]", "result": 4.4}]}
{"compound": "CCCN1/C(=C/C=C2\\CCCC(/C=C/C3=[N+](CCC)c4ccccc4C3(C)C)=C2Nc2ccc(NC(=O)CN3CCOCC3)cc2)C(C)(C)c2ccccc21", "note": "[Compound (8)]", "values": [{"measurement": "localisation in H&E processed tumor section", "setting": "breast tumor; after tissue processing for H&E", "result": "highlights mainly epithelial cancer cells"}, {"measurement": "fluorescence of residual tumor tissue in resection bed (image-guided resection)", "setting": "breast tumor; after tumor resection, oral gavage", "result": "residual tumor tissue was fluorescing in the resection bed"}, {"measurement": "highlighting of tumor by NIRF imaging after oral administration", "setting": "breast tumor; mouse with spontaneous flank (breast) tumor, oral gavage 0.4 mg/kg, following day, resected tumor", "result": "highlights the tumor"}, {"measurement": "NIRF signal at tumor margin / tumor infiltration into normal tissue (tissue section)", "setting": "breast tumor; oral gavage 0.4 mg/kg, 0.4 mg/kg", "result": "perfect correlation with tumor infiltration into normal tissues"}, {"measurement": "NIRF signal at tumor margin / tumor infiltration into normal tissue (tissue section)", "setting": "breast tumor; oral gavage 0.4 mg/kg, listed as SU780, 0.4 mg/kg", "result": "highlights the finger-like infiltration of the breast cancer cells into normal mammary fat pad"}]}
